# Laboratory results: the NIST ThermoML archive (doi:10.1021/je100610v)
# ± gives the expanded uncertainty stated by the source.
# Test: xn = mol fraction of the nth substance listed
# Settings: 101 kPa, Liquid; for speed of sound: Pulse-echo method
smiles,measurement,setting,value
"ClCCCCCCCl [1,6-dichlorohexane] + CCCCCCC",speed of sound,"292.49 K, x1 = 0.3004",1199.1 ± 1.1 m/s
same,speed of sound,"292.56 K, x1 = 0.6998",1276.9 ± 1.6 m/s
same,speed of sound,"292.79 K, x1 = 0.4999",1235 ± 1.3 m/s
same,speed of sound,"292.8 K, x1 = 0.8001",1297 ± 1.8 m/s
same,speed of sound,"292.8 K, x1 = 0.8957",1316.3 ± 2 m/s
same,speed of sound,"292.81 K, x1 = 0.1999",1181.6 ± 0.93 m/s
same,speed of sound,"292.81 K, x1 = 0.6004",1255 ± 1.5 m/s
same,speed of sound,"292.91 K, x1 = 0.4",1215.3 ± 1.2 m/s
same,speed of sound,"292.92 K, x1 = 0.1014",1167.6 ± 0.83 m/s
same,speed of sound,"293.01 K, x1 = 1",1337.8 ± 2.1 m/s
same,mass density,"293.15 K, x1 = 0.0998",722.22 ± 0.86 kg/m3
same,mass density,"293.15 K, x1 = 0.1999",760.97 ± 0.79 kg/m3
same,mass density,"293.15 K, x1 = 0.2998",799.74 ± 0.73 kg/m3
same,mass density,"293.15 K, x1 = 0.4001",838.66 ± 0.69 kg/m3
same,mass density,"293.15 K, x1 = 0.5001",877.38 ± 0.66 kg/m3
same,mass density,"293.15 K, x1 = 0.6002",916.12 ± 0.66 kg/m3
same,mass density,"293.15 K, x1 = 0.7",954.46 ± 0.69 kg/m3
same,mass density,"293.15 K, x1 = 0.8002",992.78 ± 0.74 kg/m3
same,mass density,"293.15 K, x1 = 0.9001",1030.7 ± 0.97 kg/m3
same,mass density,"293.15 K, x1 = 1",1068.33 ± 1.3 kg/m3
same,mass density,"298.15 K, x1 = 0.0998",717.96 ± 0.87 kg/m3
same,mass density,"298.15 K, x1 = 0.1999",756.72 ± 0.8 kg/m3
same,mass density,"298.15 K, x1 = 0.2998",795.42 ± 0.74 kg/m3
same,mass density,"298.15 K, x1 = 0.4001",834.33 ± 0.7 kg/m3
same,mass density,"298.15 K, x1 = 0.5001",873.04 ± 0.67 kg/m3
same,mass density,"298.15 K, x1 = 0.6002",911.75 ± 0.67 kg/m3
same,mass density,"298.15 K, x1 = 0.7",950.12 ± 0.69 kg/m3
same,mass density,"298.15 K, x1 = 0.8002",988.4 ± 0.74 kg/m3
same,mass density,"298.15 K, x1 = 0.9001",1026.11 ± 0.95 kg/m3
same,mass density,"298.15 K, x1 = 1",1063.61 ± 1.2 kg/m3
same,speed of sound,"298.16 K, x1 = 0.6998",1256.2 ± 1.6 m/s
same,speed of sound,"298.16 K, x1 = 0.8957",1297.1 ± 2 m/s
same,speed of sound,"298.17 K, x1 = 0.3004",1176.1 ± 1 m/s
same,speed of sound,"298.17 K, x1 = 0.4999",1214.5 ± 1.3 m/s
same,speed of sound,"298.18 K, x1 = 1",1319.7 ± 2.1 m/s
same,speed of sound,"298.2 K, x1 = 0.4",1195 ± 1.2 m/s
same,speed of sound,"298.2 K, x1 = 0.8001",1277.5 ± 1.8 m/s
same,speed of sound,"298.21 K, x1 = 0.1014",1145.5 ± 0.82 m/s
same,speed of sound,"298.21 K, x1 = 0.1999",1159.4 ± 0.92 m/s
same,speed of sound,"298.21 K, x1 = 0.6004",1235.2 ± 1.5 m/s
same,speed of sound,"303.14 K, x1 = 0.4999",1195.5 ± 1.3 m/s
same,speed of sound,"303.14 K, x1 = 0.6998",1237.9 ± 1.6 m/s
same,speed of sound,"303.14 K, x1 = 0.8957",1279.5 ± 2 m/s
same,speed of sound,"303.15 K, x1 = 0.3004",1156.1 ± 1 m/s
same,speed of sound,"303.15 K, x1 = 1",1302.4 ± 2.1 m/s
same,mass density,"303.15 K, x1 = 0.0998",713.61 ± 0.88 kg/m3
same,mass density,"303.15 K, x1 = 0.1999",752.3 ± 0.81 kg/m3
same,mass density,"303.15 K, x1 = 0.2998",791 ± 0.75 kg/m3
same,mass density,"303.15 K, x1 = 0.4001",830 ± 0.71 kg/m3
same,mass density,"303.15 K, x1 = 0.5001",868.59 ± 0.68 kg/m3
same,mass density,"303.15 K, x1 = 0.6002",907.23 ± 0.68 kg/m3
same,mass density,"303.15 K, x1 = 0.7",945.63 ± 0.7 kg/m3
same,mass density,"303.15 K, x1 = 0.8002",983.71 ± 0.75 kg/m3
same,mass density,"303.15 K, x1 = 0.9001",1021.49 ± 0.93 kg/m3
same,mass density,"303.15 K, x1 = 1",1058.87 ± 1.2 kg/m3
same,speed of sound,"303.19 K, x1 = 0.4",1175.5 ± 1.2 m/s
same,speed of sound,"303.19 K, x1 = 0.8001",1259.6 ± 1.8 m/s
same,speed of sound,"303.2 K, x1 = 0.1014",1124.7 ± 0.82 m/s
same,speed of sound,"303.2 K, x1 = 0.1999",1138.9 ± 0.91 m/s
same,speed of sound,"303.2 K, x1 = 0.6004",1216.8 ± 1.5 m/s
same,speed of sound,"308.12 K, x1 = 0.6998",1219.8 ± 1.6 m/s
same,speed of sound,"308.12 K, x1 = 0.8957",1261.9 ± 2 m/s
same,speed of sound,"308.13 K, x1 = 0.3004",1136.2 ± 1 m/s
same,speed of sound,"308.13 K, x1 = 0.4999",1176.5 ± 1.3 m/s
same,speed of sound,"308.14 K, x1 = 1",1285 ± 2.1 m/s
same,mass density,"308.15 K, x1 = 0.0998",709.34 ± 0.89 kg/m3
same,mass density,"308.15 K, x1 = 0.1999",748.07 ± 0.82 kg/m3
same,mass density,"308.15 K, x1 = 0.2998",786.58 ± 0.76 kg/m3
same,mass density,"308.15 K, x1 = 0.4001",825.61 ± 0.71 kg/m3
same,mass density,"308.15 K, x1 = 0.5001",864.37 ± 0.69 kg/m3
same,mass density,"308.15 K, x1 = 0.6002",902.95 ± 0.68 kg/m3
same,mass density,"308.15 K, x1 = 0.7",941.1 ± 0.71 kg/m3
same,mass density,"308.15 K, x1 = 0.8002",979.09 ± 0.76 kg/m3
same,mass density,"308.15 K, x1 = 0.9001",1016.82 ± 0.92 kg/m3
same,mass density,"308.15 K, x1 = 1",1054.14 ± 1.2 kg/m3
same,speed of sound,"308.17 K, x1 = 0.4",1156.1 ± 1.2 m/s
same,speed of sound,"308.18 K, x1 = 0.1014",1104 ± 0.81 m/s
same,speed of sound,"308.18 K, x1 = 0.6004",1198.3 ± 1.5 m/s
same,speed of sound,"308.18 K, x1 = 0.8001",1241.7 ± 1.8 m/s
same,speed of sound,"308.19 K, x1 = 0.1999",1118.6 ± 0.91 m/s
same,mass density,"313.15 K, x1 = 0.0998",704.96 ± 0.9 kg/m3
same,mass density,"313.15 K, x1 = 0.1999",743.68 ± 0.83 kg/m3
same,mass density,"313.15 K, x1 = 0.2998",782.17 ± 0.77 kg/m3
same,mass density,"313.15 K, x1 = 0.4001",821.26 ± 0.72 kg/m3
same,mass density,"313.15 K, x1 = 0.5001",859.93 ± 0.7 kg/m3
same,mass density,"313.15 K, x1 = 0.6002",898.61 ± 0.69 kg/m3
same,mass density,"313.15 K, x1 = 0.7",936.7 ± 0.71 kg/m3
same,mass density,"313.15 K, x1 = 0.8002",974.58 ± 0.76 kg/m3
same,mass density,"313.15 K, x1 = 0.9001",1012.12 ± 0.9 kg/m3
same,mass density,"313.15 K, x1 = 1",1049.39 ± 1.2 kg/m3
same,speed of sound,"313.21 K, x1 = 0.3004",1116.2 ± 1 m/s
same,speed of sound,"313.21 K, x1 = 0.6998",1201.4 ± 1.6 m/s
same,speed of sound,"313.21 K, x1 = 0.8957",1244 ± 1.9 m/s
same,speed of sound,"313.22 K, x1 = 0.4999",1157.3 ± 1.3 m/s
same,speed of sound,"313.23 K, x1 = 1",1267.4 ± 2.1 m/s
same,speed of sound,"313.25 K, x1 = 0.1014",1082.9 ± 0.81 m/s
same,speed of sound,"313.26 K, x1 = 0.4",1136.5 ± 1.2 m/s
same,speed of sound,"313.26 K, x1 = 0.8001",1223.6 ± 1.8 m/s
same,speed of sound,"313.28 K, x1 = 0.1999",1098 ± 0.9 m/s
same,speed of sound,"313.28 K, x1 = 0.6004",1179.5 ± 1.5 m/s
